Tests used:
Rattus norvegicus = conditions: acute; oral; mortality
Anas platyrhynchos = conditions: short-term; oral; feed; mortality
Colinus virginianus = conditions: acute, oral, mortality; for LC50: diet
Apis mellifera = conditions: acute, mortality
Canidae = conditions: chronic; duration: 1 years; oral; Dog Other; clinical signs
Daphnia magna = conditions: acute; duration: 48 hours; mortality
Oncorhynchus mykiss = conditions: acute; duration: 96 hours; mortality

Row | SMILES | LD50 (Rattus norvegicus) [mg/kg-day] | LC50 (Anas platyrhynchos) [mg/kg-day] | LC50 (Colinus virginianus) [mg/kg-day] | LD50 (Colinus virginianus) [mg/kg-day] | LD50 (Apis mellifera; dermal) [µg/piece] | LD50 (Apis mellifera; oral, unspecified) [µg/piece] | NOAEL (Canidae) [mg/kg-day] | LC50 (Daphnia magna) [µg/mL] | LC50 (Oncorhynchus mykiss) [µg/mL]
1 | O=[N+]([O-])c1ccccc1[O-].[Na+] [Sodium 2-nitrophenolate] | 960 | > 2540 | > 2700 | 1050 | > 100 | 124 | – | – | –
2 | COc1ccc([N+](=O)[O-])cc1[O-].[Na+] [Sodium 2-methoxy-5-nitrophenolate] | 716 | – | 1830 | 2070 | > 100 | 132 | 0.3 | – | –
3 | O=[N+]([O-])c1ccc([O-])cc1.[Na+] [Sodium 4-nitrophenolate] | 346 | – | > 1410 | > 1670 | 111 | > 61.2 | 0.3 | 27.7 | 25

Reference: EPA's ToxValDB 9.5 (doi:10.2903/j.efsa.2009.191r)
